From patent publication US10131652B2, “Pyrimidinyloxy benzene derivatives as herbicides” (E. I. DU PONT DE NEMOURS AND COMPANY, priority 2014, dated 2018)
Where two headings read alike, the source gives them in different places.

Experiments:
Format in all cases: in vivo
[1] = test system: wheat (Triticum aestivum); assay: Test B pre-/postemergence plant response; conditions: Triticum aestivum, 240 h, read-out: Plant response rating, Wheat; for plant injury at 125 g/ha: 125 g ai/ha; for plant injury at 500 g/ha: 500 g ai/ha
Summary of the method: (§1)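 Evaluation is visual, about 10 days after application, rating injury from 0 (none) to 100 (complete control) relative to untreated controls. Application was a preemergence soil spray on seeded pots or a postemergence spray on one- to two-leaf plants.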

[2] = test system: giant foxtail (Setaria faberii); assay: Test B pre-/postemergence plant response; conditions: Setaria faberi, 240 h, read-out: Plant response rating, Foxtail, Giant; for pest or weed control at 125 g/ha: 125 g ai/ha; for pest or weed control at 500 g/ha: 500 g ai/ha
Summary of the method: as §1

[3] = test system: pigweed (Amaranthus retroflexus); assay: Test B pre-/postemergence plant response; conditions: Amaranthus retroflexus, 240 h, read-out: Plant response rating, Pigweed; for pest or weed control at 125 g/ha: 125 g ai/ha; for pest or weed control at 500 g/ha: 500 g ai/ha
Summary of the method: as §1

[4] = test system: barnyardgrass (Echinochloa crus-galli); assay: Test B pre-/postemergence plant response; conditions: Echinochloa crus-galli, 240 h, read-out: Plant response rating, Barnyardgrass; for pest or weed control at 125 g/ha: 125 g ai/ha; for pest or weed control at 500 g/ha: 500 g ai/ha
Summary of the method: as §1

[5] = test system: corn (Zea mays); assay: Test B pre-/postemergence plant response; conditions: Zea mays, 240 h; for Corn plant response rating (crop injury, 0 = no effect, 100 = complete kill) at 125 g/ha: 125 g ai/ha; for Corn plant response rating (crop injury, 0 = no effect, 100 = complete kill) at 500 g/ha: 500 g ai/ha
Summary of the method: as §1

[6] = test system: winter wheat (Triticum aestivum); assay: Test D pre-/postemergence plant response; conditions: Triticum aestivum, pre-emergence, Preemergence, scale 0 to 100 (0 no effect, 100 complete control), read-out: Plant response rating, Wheat
From the text: (§2) Seeds of plant species selected from blackgrass (Alopecurus myosuroides), Italian ryegrass (Lolium multiflorum), winter wheat (Triticum aestivum), galium (catchweed bedstraw, Galium aparine), corn (Zea mays), large (Lg) crabgrass (Digitaria sanguinalis), giant foxtail (Setaria faberii), johnsongrass (Sorghum halepense), lambsquarters (Chenopodium album), morningglory (Ipomoea coccinea), yellow nutsedge (Cyperus esculentus), pigweed (Amaranthus retroflexus), ragweed (common ragweed, Ambrosia elatior), soybean (Glycine max), bamyardgrass (Echinochloa crus-galli), oilseed rape (Brassica napus), waterhemp (common waterhemp, Amaranthus rudis), and velvetleaf (Abutilon theophrasti) were planted into a blend of loam soil and sand and treated preemergence with test chemicals formulated in a non-phytotoxic solvent mixture which included a surfactant. At the same time, plants selected from these crop and weed species and also kochia (Kochia scoparia), wild oat (Avena fatua), and chickweed (common chickweed, Stellaria media) were planted in pots containing Redi-Earth® planting medium (Scotts Company, 14111 Scottslawn Road, Marysville, Ohio 43041) comprising spaghnum peat moss, vermiculite, wetting agent and starter nutrients and treated with postemergence applications of test chemicals formulated in the same manner. Plants ranged in height from 2 to 18 cm (1- to 4-leaf stage) for postemergence treatments. Treated plants and controls were maintained in a greenhouse for 13 to 15 days, after which time all species were compared to controls and visually evaluated. Plant response ratings, summarized in Table D, are based on a scale of 0 to 100 where 0 is no effect and 100 is complete control. A dash (-) response means no test result.

[7] = test system: lambsquarters (Chenopodium album); assay: Test D pre-/postemergence plant response; conditions: Chenopodium album, pre-emergence, Preemergence, scale 0 to 100 (0 no effect, 100 complete control), read-out: Plant response rating, Lambsquarters
From the text: as §2

[8] = test system: johnsongrass (Sorghum halepense); assay: Test D pre-/postemergence plant response; conditions: Sorghum halepense, pre-emergence, Preemergence, scale 0 to 100 (0 no effect, 100 complete control), read-out: Plant response rating, Johnsongrass
From the text: as §2

[9] = test system: morningglory (Ipomoea coccinea); assay: Test D pre-/postemergence plant response; conditions: Ipomoea, pre-emergence, Preemergence, scale 0 to 100 (0 no effect, 100 complete control), read-out: Plant response rating, Morningglory
From the text: as §2

[10] = test system: waterhemp (common waterhemp, Amaranthus rudis); assay: Test D pre-/postemergence plant response; conditions: Amaranthus tuberculatus, pre-emergence, Preemergence, scale 0 to 100 (0 no effect, 100 complete control), read-out: Plant response rating, Waterhemp
From the text: as §2

[11] = test system: velvetleaf (Abutilon theophrasti); assay: Test D pre-/postemergence plant response; conditions: Abutilon theophrasti, pre-emergence, Preemergence, scale 0 to 100 (0 no effect, 100 complete control), read-out: Plant response rating, Velvetleaf
From the text: as §2

[12] = test system: soybean (Glycine max); assay: Test D pre-/postemergence plant response; conditions: Glycine max, pre-emergence, Preemergence, scale 0 to 100 (0 no effect, 100 complete control), read-out: Plant response rating, Soybean
From the text: as §2

[13] = test system: small-flower umbrella sedge (Cyperus difformis); assay: Test C flooded paddy test plant response; conditions: Cyperus difformis; Flood, 250 g ai/ha; scale of 0 to 100 where 0 is no effect and 100 is complete control; 13 to 15 days; read-out: Sedge, Umbrella plant response rating
Summary of the method: (§3)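 Flooded-pot format, 3 cm water over soil maintained for the test duration; test compounds dispensed into the water at the 2-leaf stage. Greenhouse holding 13 to 15 days. Plants evaluated visually relative to untreated controls, 0 meaning no effect and 100 complete control.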

[14] = test system: rice (Oryza sativa); assay: Test C flooded paddy test plant response; conditions: Oryza sativa; Flood, 250 g ai/ha; scale of 0 to 100 where 0 is no effect and 100 is complete control; 13 to 15 days; read-out: Rice plant response rating
Summary of the method: as §3

[15] = test system: ducksalad (Heteranthera limosa); assay: Test C flooded paddy test plant response; conditions: Heteranthera limosa; Flood, 250 g ai/ha; scale of 0 to 100 where 0 is no effect and 100 is complete control; 13 to 15 days; read-out: Ducksalad plant response rating
Summary of the method: as §3

[16] = test system: barnyardgrass (Echinochloa crus-galli); assay: Test C flooded paddy test plant response; conditions: Echinochloa crus-galli; Flood, 250 g ai/ha; scale of 0 to 100 where 0 is no effect and 100 is complete control; 13 to 15 days; read-out: Barnyardgrass plant response rating
Summary of the method: as §3

[17] = post-emergence, postemergence, 0 to 100 scale, 0 no effect, 100 complete control
[18] = post-emergence, Postemergence, 0 to 100 scale (0 no effect, 100 complete control)
[19] = pre-emergence, Preemergence, 0 to 100 scale where 0 is no effect and 100 is complete control

In the case of `FCc1cc(-c2ccccc2Oc2ncc(Cl)cn2)no1` [Compound 32, 5-chloro-2-[2-[5-(fluoromethyl)-3-isoxazolyl]phenoxy]pyrimidine], the plant injury at 125 g/ha [1, 17] is reported as 30%, the plant injury at 500 g/ha [1, 18] is reported as 60% and the plant injury at 125 g/ha [1, 19] is reported as 0%. The plant injury at 500 g/ha [1, 19] was 10%, the pest or weed control at 125 g/ha [2, 17] was 70% and the pest or weed control at 500 g/ha [2, 18] was 90%. The pest or weed control at 125 g/ha [2, 19] was 90%, the pest or weed control at 500 g/ha [2, 19] was 100% and the pest or weed control at 125 g/ha [3, 17] was 100%. It also gave a pest or weed control at 500 g/ha [3, 18] of 100%, a pest or weed control at 125 g/ha [3, 19] of 100% and a pest or weed control at 500 g/ha [3, 19] of 100%. The pest or weed control at 125 g/ha [4, 17] was 70%, the pest or weed control at 500 g/ha [4, 18] was 90% and the pest or weed control at 125 g/ha [4, 19] was 90%. It also gave a pest or weed control at 500 g/ha [4, 19] of 90%, a Corn plant response rating (crop injury, 0 = no effect, 100 = complete kill) at 125 g/ha [5, 17] of 10% and a Corn plant response rating (crop injury, 0 = no effect, 100 = complete kill) at 500 g/ha [5, 18] of 50%. The Corn plant response rating (crop injury, 0 = no effect, 100 = complete kill) at 125 g/ha [5, 19] was 0%, the Corn plant response rating (crop injury, 0 = no effect, 100 = complete kill) at 500 g/ha [5, 19] was 0% and the plant injury at 8 g/ha ([6]; 8 g ai/ha) was 0%. The plant injury at 16 g/ha ([6]; 16 g ai/ha) was 0%, the plant injury at 31 g/ha ([6]; 31 g ai/ha) was 0% and the plant injury at 62 g/ha ([6]; 62 g ai/ha) was 5%. For the same compound, the pest or weed control at 8 g/ha ([7]; 8 g ai/ha) was 95%, the pest or weed control at 16 g/ha ([7]; 16 g ai/ha) was 95% and the pest or weed control at 31 g/ha ([7]; 31 g ai/ha) was 98%. It also gave a pest or weed control at 62 g/ha ([7]; 62 g ai/ha) of 100%, a pest or weed control at 8 g/ha ([8]; 8 g ai/ha) of 0% and a pest or weed control at 16 g/ha ([8]; 16 g ai/ha) of 45%. The pest or weed control at 31 g/ha ([8]; 31 g ai/ha) was 75%, the pest or weed control at 62 g/ha ([8]; 62 g ai/ha) was 85% and the pest or weed control at 8 g/ha ([9]; 8 g ai/ha) was 0%. The pest or weed control at 16 g/ha ([9]; 16 g ai/ha) was 0%, the pest or weed control at 31 g/ha ([9]; 31 g ai/ha) was 5% and the pest or weed control at 62 g/ha ([9]; 62 g ai/ha) was 0%. It also gave a pest or weed control at 8 g/ha ([10]; 8 g ai/ha) of 100%, a pest or weed control at 16 g/ha ([10]; 16 g ai/ha) of 100% and a pest or weed control at 31 g/ha ([10]; 31 g ai/ha) of 100%. For the same compound, the pest or weed control at 62 g/ha ([10]; 62 g ai/ha) was 98%, the pest or weed control at 8 g/ha ([11]; 8 g ai/ha) was 5% and the pest or weed control at 16 g/ha ([11]; 16 g ai/ha) was 40%. It also gave a pest or weed control at 31 g/ha ([11]; 31 g ai/ha) of 55%, a pest or weed control at 62 g/ha ([11]; 62 g ai/ha) of 85% and a plant injury at 8 g/ha ([12]; 8 g ai/ha) of 10%. The plant injury at 16 g/ha ([12]; 16 g ai/ha) was 15%, the plant injury at 31 g/ha ([12]; 31 g ai/ha) was 25% and the plant injury at 62 g/ha ([12]; 62 g ai/ha) was 65%. For the same compound, the pest or weed control at 250 g/ha [13] was 85%, the plant injury at 250 g/ha [14] was 20% and the pest or weed control at 250 g/ha [15] was 90%. The pest or weed control at 250 g/ha [16] was 0%.
